Type in all cases: biochemical
For one test, the target named is T1, JAK1 (Homo sapiens, UniProt P23458).
T1 construct: 5 μl of catalytic domain recombinant Kinase enzyme+Tyr peptide substrate (Invitrogen, Calif.); purchased Invitrogen
The test is described as follows: Z'-LYTE kinase assay, JAK1 tyrosine phosphorylation activity. Conditions: read-out: JAK 1 IC50. Summed up:
(§1)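 Catalytic domain + Tyr6 peptide + ATP + cpd (1% DMSO), 1 h RT; development protease 1 h RT; FRET ex 400/em 445, 520 nm; % phosphorylation vs no-inhibitor; IC50 by 4-parameter logistic; duplicates.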

For another test, the target named is T2, JAK2 (Homo sapiens, UniProt O60674).
T2 construct: 5 μl of catalytic domain recombinant Kinase enzyme+Tyr peptide substrate (Invitrogen, Calif.); purchased Invitrogen
T2 sequence (O60674 849-1124 limits assumed): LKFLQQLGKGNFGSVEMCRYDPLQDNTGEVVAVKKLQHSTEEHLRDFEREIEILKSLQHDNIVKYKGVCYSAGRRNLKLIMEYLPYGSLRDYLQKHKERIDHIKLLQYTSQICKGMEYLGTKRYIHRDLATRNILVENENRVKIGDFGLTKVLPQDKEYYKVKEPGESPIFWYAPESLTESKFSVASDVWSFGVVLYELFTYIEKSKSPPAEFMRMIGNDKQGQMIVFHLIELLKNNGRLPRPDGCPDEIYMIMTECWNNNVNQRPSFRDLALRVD
The test is described as follows: Z'-LYTE kinase assay, JAK2 tyrosine phosphorylation activity. Summed up:
as §1

The target in the next test is T3, TYK2 (Homo sapiens, UniProt P29597).
T3 construct: 5 μl of catalytic domain recombinant Kinase enzyme+Tyr peptide substrate (Invitrogen, Calif.); purchased Invitrogen
T3 sequence (P29597 897-1176 limits assumed): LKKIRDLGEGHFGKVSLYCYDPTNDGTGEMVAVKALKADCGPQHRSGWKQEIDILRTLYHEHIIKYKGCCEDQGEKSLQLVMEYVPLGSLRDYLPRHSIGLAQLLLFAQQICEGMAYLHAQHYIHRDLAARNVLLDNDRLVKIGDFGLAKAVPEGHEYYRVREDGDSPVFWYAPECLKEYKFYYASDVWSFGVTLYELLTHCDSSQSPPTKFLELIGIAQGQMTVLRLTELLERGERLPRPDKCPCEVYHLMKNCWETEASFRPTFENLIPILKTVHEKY
The test is described as follows: Z'-LYTE kinase assay, TYK2 tyrosine phosphorylation activity. Summed up: as §1

For another test, the target named is T4, JAK3 (Homo sapiens, UniProt P52333).
T4 construct: 5 μl of catalytic domain recombinant Kinase enzyme+Tyr peptide substrate (Invitrogen, Calif.); purchased Invitrogen
T4 sequence (P52333 822-1111 limits assumed): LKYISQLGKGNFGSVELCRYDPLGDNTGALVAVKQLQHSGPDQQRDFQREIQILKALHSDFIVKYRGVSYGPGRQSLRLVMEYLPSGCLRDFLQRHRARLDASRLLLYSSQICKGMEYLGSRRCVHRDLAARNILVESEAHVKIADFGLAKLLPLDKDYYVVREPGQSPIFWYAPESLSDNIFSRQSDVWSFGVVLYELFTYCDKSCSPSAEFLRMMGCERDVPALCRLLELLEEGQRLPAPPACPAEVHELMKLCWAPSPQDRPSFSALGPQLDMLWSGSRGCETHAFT
Kind of test: Z'-LYTE kinase assay, JAK3 tyrosine phosphorylation activity. A digest of the protocol: as §1

SMILES strings stand for the structures. A value given as a limit tells only on which side of the number the result lay.

One may read the IC50 as the concentration that inhibits the measured activity by half.

T1 sequence (P23458 875-1153 limits assumed): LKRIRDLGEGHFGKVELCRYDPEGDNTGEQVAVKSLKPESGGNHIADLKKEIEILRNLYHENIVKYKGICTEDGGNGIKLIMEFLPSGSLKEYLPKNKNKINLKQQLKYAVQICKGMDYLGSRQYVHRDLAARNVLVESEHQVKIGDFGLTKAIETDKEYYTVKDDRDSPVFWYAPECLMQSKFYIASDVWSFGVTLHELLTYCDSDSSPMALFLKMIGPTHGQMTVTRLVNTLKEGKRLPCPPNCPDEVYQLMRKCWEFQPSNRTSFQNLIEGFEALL

For the compound `C[C@@H](Nc1nc(Nc2cccc(NC(=O)[C@@H]3CCCO3)c2)ncc1C(N)=O)c1ccccc1` [Example 207, 4-((R)-1-phenylethylamino)-2-(3-((S)-tetrahydrofuran-2-carboxamido)phenylamino)pyrimidine-5-carboxamide], the 50% inhibitory concentration (IC50) at JAK1 was 100 to 1000 nM; on JAK2, 10 to 100 nM; against TYK2 it was 10 to 100 nM; on JAK3, 1 to 10 nM.

As for `CNC(=O)c1cnc(Nc2cccc(NC(=O)COC)c2)nc1NCc1ccccc1` [Example 113, 4-(benzylamino)-2-(3-(2-methoxyacetamido)phenylamino)-N-methylpyrimidine-5-carboxamide], the IC50 was above 1000 nM at JAK1, above 1000 nM on JAK2, 100 to 1000 nM against TYK2 and 100 to 1000 nM at JAK3.

`CC(=O)Nc1cccc(Nc2ncc(C(N)=O)c(NCc3ccc4c(c3)OCO4)n2)c1` [Example 99, 2-(3-acetamidophenylamino)-4-(benzo[d][1,3]dioxol-5-ylmethylamino)pyrimidine-5-carboxamide]: the half-inhibitory concentration (IC50) on JAK1 was 100 to 1000 nM; against JAK2 it was 10 to 100 nM; against TYK2, 10 to 100 nM; at JAK3, 10 to 100 nM.

Take `CC(=O)Nc1cccc(Nc2ncc(C(N)=O)c(N[C@@H](C)C(C)C)n2)c1` [Example 247, (S)-2-(3-acetamidophenylamino)-4-(3-methylbutan-2-ylamino)pyrimidine-5-carboxamide]: the half-inhibitory concentration (IC50) on JAK1, at JAK2, at TYK2 and against JAK3 was 10 to 100 nM in each case.

For the compound `CC(=O)Nc1cccc(Nc2cc(NCc3ccc(F)cc3)c(C(N)=O)cn2)c1` [Example 332, 6-(3-acetamidophenylamino)-4-(4-fluorobenzylamino)nicotinamide], the IC50 is above 1000 nM at JAK1, 100 to 1000 nM at JAK2, above 1000 nM at TYK2 and 100 to 1000 nM against JAK3.

In the case of `CC(C)[C@@H](C)Nc1nc(Nc2ccc(Cl)c(NC(=O)N3CCCC3)c2)ncc1C(N)=O` [Example 253, (R)-2-(4-chloro-3-(pyrrolidine-1-carboxamido)phenylamino)-4-(3-methylbutan-2-ylamino)pyrimidine-5-carboxamide], the IC50 at JAK1 is 10 to 100 nM; against JAK2, 10 to 100 nM; against TYK2, 1 to 10 nM; against JAK3, 1 to 10 nM.

For the compound `CC(=O)Nc1cccc(Nc2ncc(C(N)=O)c(NCCC(C)C)n2)c1` [Example 251, 2-(3-acetamidophenylamino)-4-(isopentylamino)pyrimidine-5-carboxamide], the concentration for half-maximal inhibition (IC50) is 10 to 100 nM on JAK1, 10 to 100 nM on JAK2, 1 to 10 nM against TYK2 and 1 to 10 nM at JAK3.

Regarding `CC(=O)Nc1cccc(Nc2ncc(C(N)=O)c(NCC3CCCNC3)n2)c1` (centres unmarked) [Example 116, 2-(3-acetamidophenylamino)-4-(piperidin-3-ylmethylamino)pyrimidine-5-carboxamide], the IC50 on JAK1, on JAK2, against TYK2 and on JAK3 was 10 to 100 nM throughout.

Regarding `C[C@@H](Nc1nc(Nc2ccc(Cl)c(NC(=O)N3CCOCC3)c2)ncc1C(N)=O)c1ccccc1` [Example 183, (R)—N-(5-(5-carbamoyl-4-(1-phenylethylamino)pyrimidin-2-ylamino)-2-chlorophenyl)morpholine-4-carboxamide], the IC50 at JAK1 was 100 to 1000 nM; on JAK2, 10 to 100 nM; at TYK2 it was 10 to 100 nM; at JAK3 it was 1 to 10 nM.

With `CC(=O)Nc1cccc(Nc2ncc(C(N)=O)c(NCC3CCCN(C(=O)Nc4ccc(F)cc4)C3)n2)c1` (centres unmarked) [Example 118, 2-(3-acetamidophenylamino)-4-((1-(4-fluorophenylcarbamoyl)piperidin-3-yl)methylamino)pyrimidine-5-carboxamide], the IC50 on JAK1 was 10 to 100 nM; against JAK2, 10 to 100 nM; at TYK2, 10 to 100 nM; against JAK3, 1 to 10 nM.

In the case of `CC(=O)Nc1cc(Nc2ncc(C(N)=O)c(Nc3cccc4nn(C)cc34)n2)ccc1OCCN(C)C` [Example 229, 2-(3-acetamido-4-(2-(dimethylamino)ethoxy)phenylamino)-4-(2-methyl-2H-indazol-4-ylamino)pyrimidine-5-carboxamide], the IC50 on JAK1 is above 1000 nM; at JAK2 it was 10 to 100 nM; at TYK2, 100 to 1000 nM; against JAK3 it was 10 to 100 nM.

In the case of `COCC(=O)N(c1cccc(Nc2ncc(C(N)=O)c(NCc3ccccc3)n2)c1)C1CC1` [Example 150, 4-(benzylamino)-2-(3-(N-cyclopropyl-2-methoxyacetamido)phenylamino)pyrimidine-5-carboxamide], the IC50 on JAK1 is above 1000 nM; at JAK2, above 1000 nM; against TYK2 it was 100 to 1000 nM; at JAK3 it was 100 to 1000 nM.

On to `CC[C@H](C)Nc1nc(Nc2cccc(NC(=O)COC)c2)ncc1C(N)=O` [Example 144, (S)-4-(sec-butylamino)-2-(3-(2-methoxyacetamido)phenylamino)pyrimidine-5-carboxamide], for which the IC50 at JAK1 lay in the range of 100 to 1000 nM; against JAK2, 100 to 1000 nM; against TYK2, 10 to 100 nM; against JAK3, 10 to 100 nM.

Take `CC(=O)Nc1cccc(Nc2ncc(C(N)=O)c(Nc3cccc4c3cnn4C)n2)c1` [Example 191, 2-(3-acetamidophenylamino)-4-(1-methyl-1H-indazol-4-ylamino)pyrimidine-5-carboxamide]: the IC50 fell in the range of 10 to 100 nM on JAK1, 10 to 100 nM at JAK2, 10 to 100 nM against TYK2 and 1 to 10 nM against JAK3.

`CC(=O)Nc1cccc(Nc2ncc(C(N)=O)c(N[C@@H](CO)c3ccccc3)n2)c1` [Example 98, (R)-2-(3-acetamidophenylamino)-4-(2-hydroxy-1-phenylethylamino)pyrimidine-5-carboxamide]: the IC50 on JAK1 lay in the range of 100 to 1000 nM; against JAK2, 100 to 1000 nM; against TYK2 it was 100 to 1000 nM; against JAK3 it was 10 to 100 nM.

Regarding `C[C@@H](Nc1nc(Nc2cccc(N(C)C(=O)N3CCCC3)c2)ncc1C(N)=O)c1ccccc1` [Example 122, (R)-2-(3-(N-methylpyrrolidine-1-carboxamido)phenylamino)-4-(1-phenylethylamino)pyrimidine-5-carboxamide], the IC50 at JAK1 was in the range of 100 to 1000 nM; against JAK2, 10 to 100 nM; at TYK2 it was 100 to 1000 nM; against JAK3, 1 to 10 nM.

For `CC(=O)Nc1cccc(Nc2ncc(C(N)=O)c(N[C@@H](c3ccccc3)C3CC3)n2)c1` [Example 152, (R)-2-(3-acetamidophenylamino)-4-(cyclopropyl(phenyl)methylamino)pyrimidine-5-carboxamide], the 50% inhibitory concentration (IC50) on JAK1 is 100 to 1000 nM; at JAK2, 100 to 1000 nM; on TYK2, 100 to 1000 nM; at JAK3, 10 to 100 nM.

With `CC(C)CNc1cc(Nc2cccc(NC(=O)N3CCCC3)c2)ncc1C(N)=O` [Example 324, 4-(isobutylamino)-6-(3-(pyrrolidine-1-carboxamido)phenylamino)nicotinamide], the concentration for half-maximal inhibition (IC50) at JAK1 is 100 to 1000 nM; at JAK2, 100 to 1000 nM; at TYK2 it was 100 to 1000 nM; at JAK3, 10 to 100 nM.

Regarding `CC(=O)Nc1cccc(Nc2ncc(C(N)=O)c(NCC3CCN(C(=O)OC(C)(C)C)C3)n2)c1` (centres unmarked) [Example 225, tert-butyl 3-((2-(3-acetamidophenylamino)-5-carbamoylpyrimidin-4-ylamino)methyl)pyrrolidine-1-carboxylate], the IC50 lay in the range of 100 to 1000 nM on JAK1, 100 to 1000 nM at JAK2, 100 to 1000 nM at TYK2 and 10 to 100 nM against JAK3.

Regarding `CC(=O)Nc1cc(Nc2ncc(C(N)=O)c(NCc3cccc(F)c3)n2)ccc1OCCN1CCCC1` [Example 223, 2-(3-acetamido-4-(2-(pyrrolidin-1-yl)ethoxy)phenylamino)-4-(3-fluorobenzylamino)pyrimidine-5-carboxamide], the IC50 at JAK1 fell in the range of 10 to 100 nM; against JAK2, 1 to 10 nM; on TYK2, 10 to 100 nM; against JAK3, 1 to 10 nM.

Regarding `NC(=O)c1cnc(Nc2cccc(NC(=O)N3CCCC3)c2)cc1NCc1ccccc1` [Example 326, 4-(benzylamino)-6-(3-(pyrrolidine-1-carboxamido)phenylamino)nicotinamide], the concentration for half-maximal inhibition (IC50) lay within 100 to 1000 nM on JAK1, 100 to 1000 nM against JAK2, 10 to 100 nM against TYK2 and 1 to 10 nM at JAK3.

On to `CC(=O)Nc1cccc(Nc2cc(N[C@H]3CCc4ccccc43)c(C(N)=O)cn2)c1` [Example 335, (S)-6-(3-acetamidophenylamino)-4-(2,3-dihydro-1H-inden-1-ylamino)nicotinamide], for which the concentration for half-maximal inhibition (IC50) was 100 to 1000 nM on JAK1, above 1000 nM against JAK2, 10 to 100 nM on TYK2 and 10 to 100 nM against JAK3.

As for `CC[C@@H](C)Nc1nc(Nc2cccc(NC(C)=O)c2)ncc1C(N)=O` [Example 238, (R)-2-(3-acetamidophenylamino)-4-(sec-butylamino)pyrimidine-5-carboxamide], the 50% inhibitory concentration (IC50) is 1 to 10 nM on JAK1, 1 to 10 nM against JAK2, 1 to 10 nM against TYK2 and below 1 nM against JAK3.

For the origin of these results see patent US8853230B2, “Inhibitors of JAK” (Portola Pharmaceuticals, Inc., priority 2009, dated 2014).
